# Assay results: ChEMBL document CHEMBL1201862, “PubChem BioAssay data set” (2004)
# Structures can show the parent of a compound that is named as a salt.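 Cells were grown in 96-well plates and exposed to each compound for 48 hours at five concentrations; endpoints were interpolated linearly between bracketing concentrations, or set to the highest concentration if not reached. GI50 = concentration required for 50% inhibition of growth.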 The source made the active and inactive calls. No stated cut-off is given here; in the data, active = GI50 up to about 1.1 µM and inactive = higher.
# Tests used:
# Assay in all cases: growth of human tumour cells (NCI), 48 h
# DMS-114 = tested on: DMS-114
# SK-MEL-28 = tested on: SK-MEL-28
# A549 = tested on: A549
# UO-31 = tested on: UO-31
# OVCAR-3 = tested on: OVCAR-3
# HCT-15 = tested on: HCT-15
# SF-539 = tested on: SF-539
# SK-MEL-2 = tested on: SK-MEL-2
# SW-620 = tested on: SW-620
# OVCAR-8 = tested on: OVCAR-8
# NCI-H226 = tested on: NCI-H226
# NCI/ADR-RES = tested on: NCI/ADR-RES
# SK-OV-3 = tested on: SK-OV-3
# OVCAR-5 = tested on: OVCAR-5
# SNB-19 = tested on: SNB-19
# UACC-257 = tested on: UACC-257
# NCI-H522 = tested on: NCI-H522
# HT-29 = tested on: HT-29
# UACC-62 = tested on: UACC-62
# K562 = tested on: K562
# DLD-1 = tested on: DLD-1
# RXF 393 = tested on: RXF 393
# HL-60 = tested on: HL-60
# A498 = tested on: A498
# IGROV-1 = tested on: IGROV-1
# NCI-H460 = tested on: NCI-H460
# XF498 = tested on: XF498
# M19-MEL = tested on: M19-MEL
# U-251 = tested on: U-251
# SNB-75 = tested on: SNB-75
# SK-MEL-5 = tested on: SK-MEL-5
# EKVX = tested on: EKVX
# MOLT-4 = tested on: MOLT-4
# LOX IMVI = tested on: LOX IMVI
# HCT-116 = tested on: HCT-116
# HOP-92 = tested on: HOP-92
# Malme-3M = tested on: Malme-3M
# HCC 2998 = tested on: HCC 2998
# KM-20L2 = tested on: KM-20L2
# CCRF-CEM = tested on: CCRF-CEM
# SF-268 = tested on: SF-268
# SF-295 = tested on: SF-295
# RPMI-8226 = tested on: RPMI-8226
# HOP-18 = tested on: HOP-18
# KM12 = tested on: KM12
# MCF7 = tested on: MCF7
# HOP-62 = tested on: HOP-62
# COLO 205 = tested on: COLO 205
# DMS-273 = tested on: DMS-273
# NCI-H23 = tested on: NCI-H23
# OVCAR-4 = tested on: OVCAR-4
# SN12C = tested on: SN12C
# TK-10 = tested on: TK-10
# 786-0 = tested on: 786-0
# M14 = tested on: M14
# SNB-78 = tested on: SNB-78
# LXFL 529 = tested on: LXFL 529
smiles,measurement,setting,value
NC1(C(=O)O)CCc2ccc(N(CCCl)CCCl)cc2C1 (stereo unspecified),GI50,DMS-114,45.9 µM (inactive)
same,GI50,SK-MEL-28,> 100 µM (inactive)
same,GI50,A549,61.7 µM (inactive)
same,GI50,UO-31,> 100 µM (inactive)
same,GI50,OVCAR-3,> 100 µM (inactive)
same,GI50,HCT-15,> 100 µM
same,GI50,SF-539,34.5 µM (inactive)
same,GI50,SK-MEL-2,38.7 µM (inactive)
same,GI50,SW-620,> 100 µM (inactive)
same,GI50,OVCAR-8,> 100 µM (inactive)
same,GI50,NCI-H226,> 100 µM (inactive)
same,GI50,NCI/ADR-RES,> 100 µM (inactive)
same,GI50,SK-OV-3,> 100 µM (inactive)
same,GI50,OVCAR-5,39.9 µM (inactive)
same,GI50,SNB-19,> 100 µM (inactive)
same,GI50,UACC-257,> 100 µM (inactive)
same,GI50,NCI-H522,26.7 µM (inactive)
same,GI50,HT-29,> 100 µM (inactive)
same,GI50,UACC-62,22.5 µM (inactive)
same,GI50,K562,> 100 µM (inactive)
same,GI50,DLD-1,> 100 µM (inactive)
same,GI50,RXF 393,> 100 µM (inactive)
same,GI50,HL-60,9.82 µM (inactive)
same,GI50,A498,> 100 µM (inactive)
same,GI50,IGROV-1,> 100 µM (inactive)
same,GI50,NCI-H460,10.2 µM (inactive)
same,GI50,XF498,43.1 µM (inactive)
same,GI50,M19-MEL,85.5 µM (inactive)
same,GI50,U-251,23.8 µM (inactive)
same,GI50,SNB-75,98.2 µM (inactive)
same,GI50,SK-MEL-5,57.3 µM (inactive)
same,GI50,EKVX,> 100 µM (inactive)
same,GI50,MOLT-4,4.74 µM (inactive)
same,GI50,LOX IMVI,39.7 µM (inactive)
same,GI50,HCT-116,0.01 µM (active)
same,GI50,HOP-92,> 100 µM (inactive)
same,GI50,Malme-3M,1 µM (active)
same,GI50,HCC 2998,> 100 µM (inactive)
same,GI50,KM-20L2,> 100 µM (inactive)
same,GI50,CCRF-CEM,5.32 µM (inactive)
same,GI50,SF-268,24.3 µM (inactive)
same,GI50,SF-295,29.6 µM (inactive)
same,GI50,RPMI-8226,84.3 µM (inactive)
same,GI50,HOP-18,> 100 µM (inactive)
same,GI50,KM12,> 100 µM (inactive)
same,GI50,MCF7,33.8 µM (inactive)
same,GI50,HOP-62,22.4 µM (inactive)
same,GI50,COLO 205,> 100 µM (inactive)
same,GI50,DMS-273,38.8 µM (inactive)
same,GI50,NCI-H23,> 100 µM (inactive)
same,GI50,OVCAR-4,> 100 µM (inactive)
same,GI50,SN12C,49.3 µM (inactive)
COc1ccc2cc3[n+](cc2c1OC)CCc1cc2c(cc1-3)OCO2 [BERBERINE SULFATE],GI50,DMS-114,4.33 µM (inactive)
same,GI50,SK-MEL-28,19.3 µM (inactive)
same,GI50,SF-539,33.8 µM (inactive)
same,GI50,SK-MEL-2,15.5 µM (inactive)
same,GI50,SW-620,30.1 µM (inactive)
same,GI50,OVCAR-8,18.1 µM (inactive)
same,GI50,TK-10,> 100 µM (inactive)
same,GI50,SK-OV-3,> 80.9 µM (inactive)
same,GI50,OVCAR-5,> 91.8 µM (inactive)
same,GI50,SNB-19,8.13 µM (inactive)
same,GI50,HT-29,32.6 µM (inactive)
same,GI50,UACC-62,17.8 µM (inactive)
same,GI50,K562,14.1 µM (inactive)
same,GI50,HL-60,14 µM (inactive)
same,GI50,A498,> 100 µM (inactive)
same,GI50,IGROV-1,36 µM (inactive)
same,GI50,786-0,51.5 µM (inactive)
same,GI50,NCI-H460,17.9 µM (inactive)
same,GI50,XF498,14 µM (inactive)
same,GI50,M19-MEL,7.6 µM (inactive)
same,GI50,M14,32.5 µM (inactive)
same,GI50,SNB-75,27.5 µM (inactive)
same,GI50,SK-MEL-5,5.07 µM (inactive)
same,GI50,LOX IMVI,43.1 µM (inactive)
same,GI50,HOP-92,23.6 µM (inactive)
same,GI50,Malme-3M,9.62 µM (inactive)
same,GI50,KM-20L2,30.8 µM (inactive)
same,GI50,CCRF-CEM,10.5 µM (inactive)
same,GI50,SF-268,6.15 µM (inactive)
same,GI50,KM12,4.88 µM (inactive)
same,GI50,DMS-273,17.2 µM (inactive)
same,GI50,NCI-H23,8.34 µM (inactive)
same,GI50,SNB-78,34.4 µM (inactive)
same,GI50,LXFL 529,4.37 µM (inactive)
